From PubChem BioAssay AID2049 (The Scripps Research Institute Molecular Screening Center, 2009) come the findings set out here.

Active and inactive are the calls of the source. No rule for the calls is given here. Some results are limits rather than exact numbers.

For orientation: EC50 means the concentration that produces a half-maximal response. As a reminder, the CC50 is the concentration that lowers cell viability or growth by half. Low readings indicate harm at low concentration, high ones better tolerance by the cells.

The target in one test is Signal transducer and activator of transcription 1-alpha/beta (Homo sapiens) (UniProt P42224). The test can be described thus: STAT3 activators, late-stage profile, late-stage follow-up, cell-based, STAT1 reporter, BCL3 qPCR, cytotoxicity (AID 2049). To be noted: STAT3/STAT1 activation, STAT1, Activation. (In general: Quantitative PCR measures a nucleic acid by following its amplification.)
Chain of Signal transducer and activator of transcription 1-alpha/beta (Homo sapiens) (P42224 whole entry, looked up): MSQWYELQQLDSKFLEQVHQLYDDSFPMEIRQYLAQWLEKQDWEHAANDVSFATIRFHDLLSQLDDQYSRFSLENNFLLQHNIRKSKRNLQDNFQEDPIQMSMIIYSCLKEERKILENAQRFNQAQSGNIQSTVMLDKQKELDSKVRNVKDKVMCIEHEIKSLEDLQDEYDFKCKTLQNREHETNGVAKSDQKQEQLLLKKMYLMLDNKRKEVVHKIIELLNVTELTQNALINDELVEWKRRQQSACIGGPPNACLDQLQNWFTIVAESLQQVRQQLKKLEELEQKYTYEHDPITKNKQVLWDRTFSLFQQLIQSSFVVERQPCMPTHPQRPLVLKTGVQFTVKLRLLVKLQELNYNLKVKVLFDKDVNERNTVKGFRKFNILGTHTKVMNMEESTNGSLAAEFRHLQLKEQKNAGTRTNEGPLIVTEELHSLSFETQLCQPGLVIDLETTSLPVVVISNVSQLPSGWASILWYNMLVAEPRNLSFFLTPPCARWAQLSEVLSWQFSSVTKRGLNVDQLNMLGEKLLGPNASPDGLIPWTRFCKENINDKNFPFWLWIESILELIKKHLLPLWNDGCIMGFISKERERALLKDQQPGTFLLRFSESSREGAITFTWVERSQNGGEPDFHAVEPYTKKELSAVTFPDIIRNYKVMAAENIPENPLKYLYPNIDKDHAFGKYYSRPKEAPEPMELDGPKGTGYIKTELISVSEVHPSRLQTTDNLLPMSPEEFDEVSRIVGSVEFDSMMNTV
Regarding `COc1cc(OC)c(NC(=O)c2cc(CN3CCCC3)on2)cc1Cl`, the EC50 is > 55.7 µM (inactive).

With `O=C(Nc1ccccc1Cl)c1cc(C2CC2)on1`, the concentration for a half-maximal effect (EC50) is 3.05 µM.

In the case of `COc1ccc(OC)c(NC(=O)c2cc(CN3CCCC3)on2)c1`, the EC50 was > 55.7 µM (inactive).

In the case of `Nc1c(C(=O)Nc2ccccc2)noc1C(=O)c1ccccc1`, the EC50 was > 55.7 µM (inactive).

`COc1cc(NC(=O)c2cc(C(C)C)on2)c(OC)cc1Cl`: the EC50 is > 55.7 µM (inactive).

As for `COc1cc(NC(=O)c2cc(C3CC3)on2)cc(OC)c1`, the EC50 entry is “inactive”.

`COc1cccc(NC(=O)c2cc(C3CC3)on2)c1`: the concentration for a half-maximal effect (EC50) is 5.23 µM.

Regarding `CCCc1cc(C(=O)Nc2cc(OC)c(Cl)cc2OC)no1`, the EC50 was > 55.7 µM (inactive).

`COc1cc(NC(=O)c2cc(C3CC3)on2)c(OC)cc1Cl`: the EC50 is > 55.7 µM (inactive).

As for `COc1cc(NC(=O)c2cc(C3CC3)on2)ccc1Br`, the EC50 result is “inactive”.

In the case of `COc1ccccc1NC(=O)c1cc(-c2ccccc2)on1`, the EC50 entry is “inactive”.

Consider `CN(C(=O)c1cc(C2CC2)on1)c1ccccc1`, for which the EC50 is > 55.7 µM (inactive).

Take `COc1cc(NC(=O)c2cc(C)on2)c(OC)cc1Cl`: the EC50 is > 55.7 µM (inactive).

For the compound `COc1ccc(Cl)cc1NC(=O)c1cc(C2CC2)on1`, the EC50 is > 55.7 µM (inactive).

The subject of a further test is Cytotoxicity. Described as above. The following applies: human cell reporter, STAT3/STAT1 activation, cytotoxicity panel.
`COc1cc(NC(=O)c2cc(C3CC3)on2)c(OC)cc1Cl` came in with a CC50 of over 55.7 µM.
